Literature values, collected in patent US20250261634A1, “LIQUID HERBICIDAL COMPOSITIONS” (priority 2021, published 2025).

Tested on: weeds
Details: in vivo

## CP(=O)(O)CC[C@H](N)C(=O)O (single isomer, unassigned) [L-isomer]
  herbicidal activity relative to the racemate: twice that of the racemate
